# Tests used:
# [1] = system: DOCA-salt hypertensive rats; assay: Ganglionic-mediated ICP/MAP in DOCA-salt hypertensive rats; type: in vivo, rat; conditions: 50 nmol/kg into left corpus cavernosum, 1-5 V
# Excerpt: (§1) In these experiments, male Sprague-Dawley rats (200-250 g; Harlan) were made DOCA-salt hypertensive by uninephrectomy and implantation of a deoxycorticosterone-acetate (DOCA) silastic pellet at the back of the neck. DOCA rats received saltwater (1% NaCl, 0.2% KCl) for 4 weeks. Sham control rats were uninephrectomized and drank tap water. Male stroke prone-spontaneously hypertensive rats (12 weeks old, 350 g) were obtained from the breeding colony at the Medical College of Georgia, Augusta, Ga. Systolic blood pressures were taken by tail cuff measurement (DOCA/sham: after 4 weeks treatment; SHRSP: at 12 weeks of age). Measurement of ICP/MAP was as described above. […] Subsequently, the ICP/MAP response to ganglionic stimulation was assessed over a range of voltages.
# [2] = system: corpus cavernosum; assay: Ganglionic (major pelvic ganglion) stimulated increase in CCP/MAP in anesthetized rat; type: in vivo; conditions: for effect on baseline CCP or MAP: no stimulation; for CCP/MAP at 5 V (mean ± s.e.m.): n=4
# Description: (§2) Using an in vivo rat model, the effect of Rho-kinase inhibition on corpus cavernosum (CCP) and mean arterial pressure (MAP) was examined. The left carotid artery and right corpus cavernosum of the rat penis were cannulated for continuous monitoring of MAP and CCP respectively as described by Mills, T., et al., (Biol. Reprod. 59, 1413-1418, 1998; J. Appl. Physiol., 91: 1269-1273, 2001). Rats were anesthetized with intramuscular ketamine (87 mg/kg body wt) plus xylazine (13 mg/kg) and maintained on supplemental ketamine as needed. Vasoactive drugs were administered through a cannula in the left corpus cavernosum. For experiments measuring voltage-stimulated changes in CCP and MAP, stainless steel bipolar electrodes were positioned on the right major pelvic ganglion. […] All pressure data were collected for analysis using Polyview data-acquisition software.
# After initial measurements of CCP and MAP during ganglionic stimulation, rats were treated with L-NNA, L-NAME (200 μg/kg body weight), or saline control, and after 5 min ganglionic stimulation and CCP/MAP measurements were repeated. […] After 5 min, a 5-V stimulation was repeated, and CCP and MAP measurements were recorded.
# Rho-kinase inhibition can also overcome muscle contraction due to inhibition of cyclic GMP formation. […] After 5 min, a 5-V stimulation was repeated, and CCP and MAP measurements were recorded.
# [3] = male, rat, in vivo
# Description: as §2
# [4] = system: castrated rats; assay: Erectile response to graded ganglionic stimulation in castrated rats; type: in vivo, rat; conditions: intracavernosal injection, 1-5 V
# Excerpt: Rats which have been rendered severely hypogonadal by surgical castration show a diminished erectile response.
# [5] = system: animal model of hypertension; conditions: cited from earlier work
# [6] = system: erectile tissue; assay: Erectile response ICP/MAP to NO donor and Rho-kinase inhibitor injected into erectile tissue; type: in vivo; conditions: small/low dose injected directly into erectile tissue
# [7] = system: rat aorta; assay: Rat aortic rings, endothelium intact or denuded, PE-induced contraction; type: cell-based
# Excerpt: In these experiments, aorta (3 mm rings) were cleaned of adherent connective tissue and hung on stainless steel hooks attached between a force transducer and stationary mount for the measurement of isometric force generation. Endothelium was removed from some vessels by gentle rubbing of the lumen with a steel wire. Aortic rings were then placed in an isolated chamber, bathed in physiologic salt solution (mmol/L: 130 NaCl, 4.7 KCl, 1.18 KHPO4, 1.17 MgSO4, 1.6 CaCl2-2H2O, 14.9 NaHCO3, 5.5 dextrose, and 0.03 CaNa2EDTA; 37° C.) and gassed with 95% O2/5%CO2 Rings were set at 3 g passive tension and treated with indomethacin (1 μmol/L) to inhibit prostaglandin synthesis. Following a one hour equilibration period, vessels were contracted with phenylephrine (PE) (0.1 μmol/L) and subsequently treated with acetylcholine (1 μmol/L) to test for the presence of endothelium.
# [8] = system: cultured cells; conditions: cited from earlier work
# [9] = system: cavernous sinuses; assay: Erectile response to 5V ganglionic stimulation after vasoconstrictor injected into cavernous sinuses; type: in vivo; conditions: for effect on erectile response to 5V ganglionic stimulation: METHOX 10 μg/kg or ET-1 50 pmol into cavernous sinuses
# Description: Thus, FIGS. 8 and 9 show results where after an initial (5V) ganglionic stimulation (Cont), either the α-adrenergic agonist, Methoxamine (METHOX) (10 μg/kg) or endothelin-1 (ET-1) (50 pmol) was injected into the cavernous sinuses.
# [10] = system: corpus cavernosum; assay: Intracavernosal injection in anesthetized rat, CCP/MAP without ganglionic stimulation; type: in vivo; parameters: time to plateau of CCP/MAP increase: unit not given here
# Description: as §2
# [11] = system: SHRSP rats; assay: Ganglionic-mediated ICP/MAP in stroke prone spontaneously hypertensive rats (SHRSP); type: in vivo, rat; conditions: 50 nmol/kg into left corpus cavernosum, 1-5 V
# Excerpt: as §1
# [12] = system: isolated rat cavernosal tissue; assay: Isolated rat cavernosal strips, relaxation of agonist-induced contraction; type: cell-based; conditions: for effect on relaxation response of cavernosal strips to 1 μM Y-27632: 10 μM incubation
# Description: Cavernosal strips (3-4 mm long) were prepared by removal of the corpus spongiosum and dorsal vein, and the proximal portion of the corpus cavernosum divided across the midline of the intact penis. Right and left longitudinal strips were mounted in an isolated muscle bath for measurement of contractile force generation. Strips were bathed in physiologic salt solution (130 mM NaCl, 4.7 mM KCl, 1.18 mM KHPO4, 1.17 mM […], 1.6 mM CaCl2-2H2O, 14.9 mM NaHCO3, 5.5 mM dextrose, and 0.03 mM CaNa2 EDTA), at 37° C., and gassed with 95% O2/5% CO2.
# [13] = system: corpus cavernosum; assay: Erectile response to electrical stimulation of the autonomic ganglion after phosphatase inhibitor injected into corpus cavernosum; type: in vivo; conditions: data not shown
# Excerpt: In an embodiment, the target of Rho-kinase is MLC phosphatase (FIG. 2). […] With MLC phosphatase activity inhibited, the resulting high levels of phosphorylated myosin light chain keep the sexual organs in a nonerect state.
# [14] = 200 μg/kg into cavernosal sinuses
molecule,measurement,setting,value
"CC(N)[C@H]1CC[C@H](C(=O)Nc2ccncc2)CC1 (single isomer, unassigned; (+)) [Y-27632, monohydrate]",erectile response (ICP/MAP),[1],elevating the erectile response to near normal levels
same,effect on attenuation of ganglionic-induced CCP/MAP increase by NOS inhibition,"[2]; 50 nmol/kg after L-NAME, 5 V",overcome
same,effect on CCP/MAP response to ganglionic stimulation,"[2]; 200 nmol/kg into cavernous sinuses, 0-5 V",potentiated the CCP/MAP response to ganglionic stimulation at each voltage
same,ganglionic-stimulated rise in CCP/MAP at lowest voltages,"[2]; 200 nmol/kg, lowest stimulation voltages",near maximal levels
same,increase in ganglionic-stimulated CCP/MAP at 5 V,"[2]; 2.0-200 nmol/kg, 5 V",21-38%
same,dose at which MAP was significantly decreased,[3],≥ 400 nmol/kg
same,erectile response,[4],restored to levels similar to those in age-matched intact animals
same,smooth muscle relaxation,[5],cause smooth muscle relaxation
same,erectile response (increase in ICP/MAP),[6],cause an erectile response
same,vasodilator sensitivity to SNP,"[7]; 1 μmol/L prior to PE contraction, endothelium-denuded vessels",increased vasodialator sensitivity to SNP
same,inhibition of force generation to 10 μmol/L PE,"[7]; 1 μmol/L, endothelium denuded vessels",completely ineffective
same,inhibition of force generation to 10 μmol/L PE,"[7]; 1 μmol/L, endothelium intact rings",significant inhibition of force generation
same,inhibition of contractile response to 10 μmol/L PE,"[7]; 1 μmol/L, endothelium intact, in presence of L-NNA (100 μmol/L) or ODQ (10 μmol/L)",significantly less effective
same,inhibition of contractile response to 10 μmol/L PE,"[7]; 10 μmol/L or 100 μmol/L, endothelium denuded rings",concentration dependent inhibition
same,smooth muscle relaxation,[8],cause smooth muscle relaxation
same,effect on vasoconstrictor action of ET-1,"[9]; 50 nmol before ET-1 50 pmol, 5V",vasoconstrictor effect was prevented
same,effect on vasoconstrictor action of METHOX,"[9]; 50 nmol before METHOX 10 μg/kg, 5V",vasoconstrictor effect was prevented
same,increase in CCP/MAP,"[10]; 2.0-400 nmol/kg body weight in 2 μl saline into left corpus cavernosum sinuses, no stimulation",significant dose-dependent increase
same,time to plateau of CCP/MAP increase,[10]; 2.0-400 nmol/kg intracavernosal,about four
same,maximum increase in CCP/MAP over control,"[10]; range of 2.0-200 nmol/kg, independent of significant changes in MAP",74%
same,erectile response (ICP/MAP),[11],significantly increasing the erectile response
same,IC50,"[12]; Rattus norvegicus, read-out: IC50, relaxation of PE-induced tone",1000 nM
"COC(=O)[C@@H](N)CCCNC(=N)N[N+](=O)[O-] [L-NAME, N^ω-nitro-L-arginine methyl ester]",effect on increase in CCP/MAP induced by 5 V stimulation,"[2]; 200 μg/kg into cavernosal sinuses, 5 V",significantly attenuated
same,effect on baseline CCP or MAP,[2]; [14],did not alter CCP or MAP from baseline
same,effect on relaxation response of cavernosal strips to 1 μM Y-27632,[12],did not significantly alter
same,effect on PE-induced contraction,"[12]; 10 μM, 15 min",no effect
"N=C(NCCC[C@H](N)C(=O)O)N[N+](=O)[O-] [L-NNA, N^ω-nitro-L-arginine]",effect on baseline CCP or MAP,[2]; [14],did not alter CCP or MAP from baseline
"CN(C)c1ccc2nc3ccc(=[N+](C)C)cc-3sc2c1 [MB, methylene blue]",CCP/MAP at 5 V (mean ± s.e.m.),"[2]; MB 300-500 μg/kg intracavernosal, Y-27632 50-200 nmol/kg in continued presence of MB",0.49±0.04
same,effect on relaxation response of cavernosal strips to 1 μM Y-27632,[12],did not significantly alter
"COc1ccc(OC)c(C(O)C(C)N)c1 (centres unmarked) [METHOX, Methoxamine]",effect on erectile response to 5V ganglionic stimulation,[9],lowered the erectile response
"O=c1onc2cnc3ccccc3n12 [ODQ, 1H-[1,2,4]oxadiozolo-[4,3-a]quinoxalin-1]",CCP/MAP at 5 V (mean ± s.e.m.),"[2]; ODQ 300-500 μg/kg intracavernosal, Y-27632 50-200 nmol/kg in continued presence of ODQ",0.50±0.07
"[Na+].[Na+].[Na+].[O]=[V]([O-])([O-])[O-] [SOV, sodium orthovanadate]",inhibition of erectile response,[13]; 0.1 and 1 μmol/L SOV,significant inhibition
same,effect on erectile response,[13]; injected into corpus cavernosum immediately before stimulation,inhibits the erectile response in a dose dependent manner
(+/−)-(E)-methyl-2-((E)-hydroxyimino)-5-nitro-6-methoxy-3-hexenamide [NOR-1],erectile response (increase in ICP/MAP),[6],intermediate erectile response
"endothelin-1 (CSCSSLMDKECVYFCHLDIIW; Endothelin-1; UniProt P05305 53-73, looked up) [ET-1, vasoconstrictor]",effect on erectile response to 5V ganglionic stimulation,[9],lowered the erectile response

# Source: patent US20020132832A1, “Treatment of erectile dysfunction” (priority 2001, published 2002)
